US20230159496A1, “COMPOUNDS AND METHODS FOR MODULATING SPLICING” (REMIX THERAPEUTICS INC., priority 2020, published 2023)
Where two headings read alike, the source gives them in different places.

Tests used:
Type in all cases: cell-based
HTT CJ mRNA = experiment: Gene panel canonical junction qPCR assay, HTT; conditions: decrease in CJ mRNA levels, gene panel; read-out: HTT IC50
Method: (§1) The expression of a target mRNA was measured by detecting the formation of an exon-exon junction in the canonical transcript (CJ). A compound mediated exon-inclusion event was detected by observing an increase in formation of a new junction with an alternative exon (AJ). Real-time qPCR assays were used to detect these splicing switches and interrogate the potency of various compounds towards different target genes. A high-throughput real time quantitative PCR (RT-qPCR) assay was developed to measure these two isoforms of the mRNA (CJ and AJ) for an exemplary gene, HTT, together with a control housekeeping gene, GAPDH or GUSB or PPIA, used for normalization. Briefly, the A673 or K562 cell line was treated with various compounds described herein (e.g., compounds of Formula (I)). After treatment, the levels of the HTT mRNA targets were determined from each sample of cell lysate by cDNA synthesis followed by qPCR. The A673 cell line was cultured in DMEM with 10% FBS. Cells were diluted with full growth media and plated in a 96-well plate (15,000 cells in 100 ul media per well). The plate was incubated at 37° C. with 5% CO2 for 24 hours to allow cells to adhere. An 11-point 3-fold serial dilution of the compounds was made in DMSO then diluted in media in an intermediate plate. Compounds were transferred from the intermediate plate to the cell plate with the top dose at a final concentration of 10 uM in the well. Final DMSO concentration was kept at or below 0.25%. The cell plate was returned to the incubator at 37° C. with 5% CO2 for an additional 24 hours. The K562 cell line was cultured in IMDM with 10% FBS. For K562, cells were diluted with full growth media and plated in either a 96-well plate (50,000 cells in 50 uL media per well) or a 384-well plate (8,000-40,000 cells in 45 uL media per well). An 11-point 3-fold serial dilution of the compounds were made in DMSO then diluted in media in an intermediate plate. Compound was transferred from the intermediate plate to the cell plate with the top dose at a final concentration of 10 uM in the well. Final DMSO concentration was kept at or below 0.25%. Final volume was 100 uL for 96-well plate and 50 uL for 384-well plate. The cell plate was then placed in an incubator at 37° C. with 5% CO2 for 24 hours. The cells were then gently washed with 50 uL-100 uL cold PBS before proceeding to addition of lysis buffer. 30 uL-50 uL of room temperature lysis buffer with DNAse I (and optionally RNAsin) was added to each well. Cells were shaken/mixed thoroughly at room temperature for 5-10 minutes for lysis to take place and then 3 uL-5 uL of room temperature stop solution was added and wells were shaken/mixed again. After 2-5 minutes, the cell lysate plate was transferred to ice for RT-qPCR reaction setup. The lysates could also be frozen at −80° C. for later use. In some cases, a direct lysis buffer was used. An appropriate volume of 3× lysis buffer (10 mM Tris, 150 mM NaCl, 1.5%-2.5% Igepal and 0.1-1 U/uL RNAsin, pH 7.4) was directly added to either K562 or A673 cells in media and mixed by pipetting 3 times. The plates were then incubated at room temperature with shaking/rocking for 20-50 minutes to allow for lysis to take place. After this time, the cell lysate plate was transferred to ice to set up for the RT-qPCR reactions. The lysates could also be frozen at −80° C. for later use. To set up 10 uL RT-qPCR reactions, cell lysates were transferred to 384-well qPCR plates containing the master mix according to the table below. The plates were sealed, gently vortexed, and spun down before the run. The volumes were adjusted accordingly in some instances where the reaction was carried in 20 uL. The table below summarizes the components of the RT-qPCR reactions: The RT-qPCR reaction was performed using a QuantStudio (ThermoFisher) under the following fast cycling conditions. All samples and standards were analyzed at least in duplicate.

Target C CJ mRNA = experiment: Gene panel canonical junction qPCR assay, Target C; conditions: decrease in CJ mRNA levels, gene panel; read-out: Target C IC50
Method: as §1

HTT mRNA = experiment: Splicing assay (RT-qPCR) monitoring HTT canonical junction (CJ) and alternative junction (AJ) mRNA isoforms; conditions: A673 or K562 cells, 24 h treatment, top dose 10 uM
Summary of the method: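 A673 or K562 cells treated 24 h at 37 °C with an 11-point 3-fold dilution (top 10 uM final, DMSO ≤0.25%). Lysates assayed by one-step RT-qPCR for HTT CJ and AJ isoforms, normalized to GAPDH, GUSB (K562) or PPIA (A673).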

SMN2 CJ mRNA = experiment: Gene panel canonical junction qPCR assay, SMN2; conditions: decrease in CJ mRNA levels, gene panel; read-out: SMN2 IC50
Method: as §1

[1] = decrease in CJ mRNA (50% response), read-out: HTT CJ AC50
[2] = increase in AJ mRNA (50% response), read-out: HTT AJ AC50

SMILES	IC50 (HTT CJ mRNA) [nM]	IC50 (Target C CJ mRNA) [nM]	IC50 (SMN2 CJ mRNA) [nM]	AC50 (HTT mRNA; [1]) [nM]	AC50 (HTT mRNA; [2]) [nM]
Cc1cn2cc(-c3ccc4nc(N5CCNC6(CC6)C5)[nH]c(=O)c4c3)cc(F)c2n1 [Compound 191, 6-(8-fluoro-2-methylimidazo[1,2-a]pyridin-6-yl)-2-(4,7-diazaspiro[2.5]octan-7-yl)quinazolin-4(3H)-one]	> 10000	> 10000	> 10000	> 10000	> 10000
Cc1cn2nc(-c3ccc4nc(NC5CCNCC5)[nH]c(=O)c4c3)cc(C)c2n1 [Compound 192, 6-(2,8-dimethylimidazo[1,2-b]pyridazin-6-yl)-2-(piperidin-4-ylamino)quinazolin-4(3H)-one]	> 10000	> 10000	> 10000	> 10000	> 10000
Cn1cc2ccc(-n3cnc4cc(NC5CCNCC5)ccc4c3=O)cc2n1 [Compound 204, 3-(2-methyl-2H-indazol-6-yl)-7-(piperidin-4-ylamino)quinazolin-4(3H)-one]	> 10000	> 10000	> 10000	> 10000	> 10000
Cc1cn2cc(-c3ccc4c(=O)n(C5CCNCC5)cnc4c3)cc(F)c2n1 [Compound 205, 7-(8-fluoro-2-methylimidazo[1,2-a]pyridin-6-yl)-3-(piperidin-4-yl)quinazolin-4(3H)-one]	100 to 1000	100 to 1000	< 100	100 to 1000	100 to 1000
CN1CCC(n2cnc3cc(-c4ccc5nn(C)cc5c4)ccc3c2=O)CC1 [Compound 208, 7-(2-methyl-2H-indazol-5-yl)-3-(1-methylpiperidin-4-yl)quinazolin-4(3H)-one]	> 10000	> 10000	100 to 1000	> 10000	1000 to 10000
CN1CCC(n2cnc3cc(-c4cc(F)c5nn(C)cc5c4)ccc3c2=O)CC1 [Compound 209, 7-(7-fluoro-2-methyl-2H-indazol-5-yl)-3-(1-methylpiperidin-4-yl)quinazolin-4(3H)-one]	1000 to 10000	1000 to 10000	< 100	1000 to 10000	100 to 1000
Cc1cn2cc(-c3ccc4c(=O)n(C5CCNCC5)cnc4c3F)cc(F)c2n1 [Compound 210, 8-fluoro-7-(8-fluoro-2-methylimidazo[1,2-a]pyridin-6-yl)-3-(piperidin-4-yl)quinazolin-4(3H)-one]	1000 to 10000	1000 to 10000	100 to 1000	1000 to 10000	1000 to 10000
Cc1cn2cc(-c3ccc4c(c3)CCN(C3CCNCC3)C4=O)cc(Cl)c2n1 [Compound 216]	1000 to 10000	1000 to 10000	< 100	1000 to 10000	1000 to 10000
Cc1cn2cc(-c3ccc4c(c3)CCN(C3CCNCC3)C4=O)c(C)cc2n1 [Compound 218]	1000 to 10000	1000 to 10000	1000 to 10000	1000 to 10000	1000 to 10000
Cc1cc(-c2ccc3c(c2)CCN(C2CCNCC2)C3=O)cc2cn(C)nc12 [Compound 219]	1000 to 10000	1000 to 10000	< 100	1000 to 10000	1000 to 10000
O=C1c2ccc(-c3cn[nH]c3)cc2CCN1C1CCNCC1 [Compound 220]	> 10000	> 10000	> 10000	> 10000	> 10000
Cc1nc2c(F)cc(-c3ccc4c(c3)CCN(C3CCNCC3)C4=O)cc2s1 [Compound 226]	> 10000	> 10000	100 to 1000	> 10000	> 10000

The next lines start with results.

IC50 (HTT CJ mRNA) [nM]	IC50 (Target C CJ mRNA) [nM]	IC50 (SMN2 CJ mRNA) [nM]	SMILES	AC50 (HTT mRNA; [1]) [nM]	AC50 (HTT mRNA; [2]) [nM]
100 to 1000	100 to 1000	< 100	Cc1cn2nc(-c3ccc4c(=O)n(C5CCNCC5)cnc4c3)cc(C)c2n1 [Compound 181]	100 to 1000	100 to 1000
100 to 1000	100 to 1000	100 to 1000	Cc1cn2nc(-c3ccc4nc(N5CCNC6(CC6)C5)[nH]c(=O)c4c3)cc(C)c2n1 [Compound 190]	100 to 1000	100 to 1000
> 10000	> 10000	> 10000	CN1CCC(Nc2ccc3c(=O)n(-c4ccc5cn(C)nc5c4)cnc3c2)CC1 [Compound 203, 3-(2-methyl-2H-indazol-6-yl)-7-((1-methylpiperidin-4-yl)amino)quinazolin-4(3H)-one]	> 10000	> 10000
100 to 1000	100 to 1000	< 100	Cn1cc2cc(-c3ccc4c(=O)n(C5CCNCC5)cnc4c3)cc(F)c2n1 [Compound 206, 7-(7-fluoro-2-methyl-2H-indazol-5-yl)-3-(piperidin-4-yl)quinazolin-4(3H)-one]	100 to 1000	100 to 1000
1000 to 10000	1000 to 10000	100 to 1000	Cc1cn2cc(-c3ccc4c(=O)n(C5CCN(C)CC5)cnc4c3)cc(F)c2n1 [Compound 207, 7-(8-fluoro-2-methylimidazo[1,2-a]pyridin-6-yl)-3-(1-methylpiperidin-4-yl)quinazolin-4(3H)-one]	1000 to 10000	1000 to 10000
1000 to 10000	1000 to 10000	< 100	Cc1nc2c(F)cc(-c3ccc4c(c3)CCN(C3CCNCC3)C4=O)cc2o1 [Compound 215]	1000 to 10000	1000 to 10000
1000 to 10000	> 10000	100 to 1000	Cc1cn2cc(-c3ccc4c(c3)CCN(C3CCNCC3)C4=O)cc(C)c2n1 [Compound 217]	1000 to 10000	1000 to 10000
> 10000	> 10000	100 to 1000	Cc1cn2cc(-c3ccc4c(c3)CCN(C3CCNCC3)C4=O)nc2c(C)n1 [Compound 221]	> 10000	> 10000
1000 to 10000	1000 to 10000	100 to 1000	Cc1cn2nc(-c3ccc4c(c3)CCN(C3CCNCC3)C4=O)nc2c(C)n1 [Compound 222]	1000 to 10000	1000 to 10000
1000 to 10000	> 10000	100 to 1000	Cc1cn2nc(-c3ccc4c(c3)CCN(C3CCNCC3)C4=O)cc2c(C)n1 [Compound 223]	1000 to 10000	1000 to 10000
> 10000	> 10000	100 to 1000	Cc1cn2cc(-c3ccc4c(c3)CCN(C3CCNCC3)C4=O)ncc2n1 [Compound 224]	> 10000	> 10000
> 10000	> 10000	> 10000	Cn1cc2cc(-c3ccc4c(c3)CCN(C3CCNCC3)C4=O)cc(F)c2n1 [Compound 225]	> 10000	> 10000
